According to patent US20240247021A1, “CRYSTAL FORMS OF KUDING SAPONIN A COMPOUND, PHARMACEUTICAL COMPOSITION AND USE THEREOF” (SHANGHAI KE PHARMACEUTICAL CO., LTD, priority 2021, published 2024):
Like-named read-outs stand apart in the source and are kept apart here.

Columns and labels:
[1] = Competition experiment of crystal form A and crystal form J in water suspension; format: physicochemical; details: equal mixture of crystal forms A and J suspended in water, stirred at room temperature 3 days; XRPD of wet and dry sample
Experimental: Firstly, an initial mixing sample was prepared: samples of the crystal form A and the crystal form J of Kudinoside A with the equivalent quantity were uniformly mixed, and sampling was carried out for XRPD detection.
Water was added to the sample to form a suspension, which was stirred at room temperature and then centrifuged 3 days later, and sampling was carried out for XRPD detection (wet sample); after drying under vacuum at 30° C., the sample was subjected to XRPD detection (dry sample).

[2] = Thermogravimetric analysis (TGA); format: physicochemical; details: 10 K/min, nitrogen
Description: Thermogravimetric analysis, or TGA for short, refers to a thermal analysis method for measuring the relationship of the mass of a sample to be detected with the change of temperature or time at a programmed temperature, and it is used to study information related to the quality of the sample, such as thermal stability, components of intermediate products possibly generated, etc. It is often used in combination with other thermal analysis methods for comprehensive thermal analysis. Methods for performing thermogravimetric analysis on the crystals are well known to those skilled in the art. In the present invention, the crystal forms A, C, and J of Kudinoside A are determined by using a thermogravimetric analyzer, and the specific measurement conditions are shown in Table 6.

[3] = Conditions under which the crystal forms exist stably; format: physicochemical
[4] = Hygroscopicity test by dynamic vapor sorption (DVS); format: physicochemical; details: for Degree of hygroscopicity: criteria of Table 12
Experimental: Dynamic vapor sorption (DVS) is a test method for analyzing the moisture sorption performance of a sample and recording the moisture sorption isotherm, and it determines the stability of a compound by identifying its sorption capacity for moisture. Methods for performing dynamic vapor sorption analysis on the crystals are well known to those skilled in the art. In the present invention, the hygroscopicity of the crystal forms A, C, and J of Kudinoside A is determined by using a dynamic vapor sorption instrument, and the specific measurement conditions are shown in Table 7.
About 10 mg of each of the crystal forms A, C, and J obtained in Examples 1-3 was tested for its hygroscopicity using a dynamic vapor sorption (DVS) instrument (test conditions: a temperature of 25° C. and a relative humidity of 0%-80%), and the hygroscopicity of each crystal form was judged using the criteria shown in Table 12 below. For the steps and the judgment criteria of the hygroscopicity test, reference is made to the General Requirement 9103-Guidelines for Hygroscopicity in Pharmacopoeia of the People's Republic of China 2020 (Volume IV).

[5] = Accelerated test (40 ± 2° C., humidity 75% ± 5%), 0 month
[6] = Accelerated test (40 ± 2° C., humidity 75% ± 5%), 1 month
[7] = Accelerated test (40 ± 2° C., humidity 75% ± 5%), 3 month
[8] = Accelerated test (40 ± 2° C., humidity 75% ± 5%), 4 month
[9] = Accelerated test (40 ± 2° C., humidity 75% ± 5%), 5 month
[10] = Accelerated test (40 ± 2° C., humidity 75% ± 5%), 6 month
[11] = Long-term test 1 (25 ± 2° C., humidity 60% ± 5%), 0 month
[12] = Long-term test 1 (25 ± 2° C., humidity 60% ± 5%), 1 month
[13] = Long-term test 1 (25 ± 2° C., humidity 60% ± 5%), 3 month
[14] = Long-term test 1 (25 ± 2° C., humidity 60% ± 5%), 4 month
[15] = Long-term test 1 (25 ± 2° C., humidity 60% ± 5%), 6 month
[16] = Long-term test 1 (25 ± 2° C., humidity 60% ± 5%), 9 month
[17] = Long-term test 1 (25 ± 2° C., humidity 60% ± 5%), 12 month
[18] = Long-term test 1 (25 ± 2° C., humidity 60% ± 5%), 24 month
[19] = Long-term test 2 (5 ± 3° C.), 0 month
[20] = Long-term test 2 (5 ± 3° C.), 1 month
[21] = Long-term test 2 (5 ± 3° C.), 3 month
[22] = Long-term test 2 (5 ± 3° C.), 4 month
[23] = Long-term test 2 (5 ± 3° C.), 6 month
[24] = Long-term test 2 (5 ± 3° C.), 9 month
[25] = Long-term test 2 (5 ± 3° C.), 12 month
[26] = Long-term test 2 (5 ± 3° C.), 24 month
[27] = DVS, 25° C., relative humidity 0%-80%

- Appearance [5]: White
- Content of Kudinoside A [5]: 100.2 % of the labeled amount
- Content of impurity F (Kudinoside D) [5]: 0.09%
- Total content of impurities [5]: 0.09%
- Appearance [6]: White
- Content of Kudinoside A [6]: 101.7 % of the labeled amount
- Content of impurity F (Kudinoside D) [6]: 0.17%
- Total content of impurities [6]: 0.17%
- Appearance [7]: White
- Content of Kudinoside A [7]: 99.0 % of the labeled amount
- Content of impurity F (Kudinoside D) [7]: 0.26%
- Total content of impurities [7]: 0.43%
- Appearance [8]: White
- Content of Kudinoside A [8]: 98.0 % of the labeled amount
- Content of impurity F (Kudinoside D) [8]: 0.29%
- Total content of impurities [8]: 0.52%
- Appearance [9]: White
- Content of Kudinoside A [9]: 98.9 % of the labeled amount
- Content of impurity F (Kudinoside D) [9]: 0.29%
- Total content of impurities [9]: 0.60%
- Appearance [10]: White
- Content of Kudinoside A [10]: 98.4 % of the labeled amount
- Content of impurity F (Kudinoside D) [10]: 0.29%
- Total content of impurities [10]: 0.66%
- Appearance [11]: White
- Content of Kudinoside A [11]: 100.2 % of the labeled amount
- Content of impurity F (Kudinoside D) [11]: 0.09%
- Total content of impurities [11]: 0.09%
- Appearance [12]: White
- Content of Kudinoside A [12]: 101.4 % of the labeled amount
- Content of impurity F (Kudinoside D) [12]: 0.09%
- Total content of impurities [12]: 0.09%
- Appearance [13]: White
- Content of Kudinoside A [13]: 100.2 % of the labeled amount
- Content of impurity F (Kudinoside D) [13]: 0.12%
- Total content of impurities [13]: 0.12%
- Appearance [14]: White
- Content of Kudinoside A [14]: 99.2 % of the labeled amount
- Content of impurity F (Kudinoside D) [14]: 0.13%
- Total content of impurities [14]: 0.13%
- Appearance [15]: White
- Content of Kudinoside A [15]: 98.3 % of the labeled amount
- Content of impurity F (Kudinoside D) [15]: 0.15%
- Total content of impurities [15]: 0.15%
- Appearance [16]: White
- Content of Kudinoside A [16]: 98.8 % of the labeled amount
- Content of impurity F (Kudinoside D) [16]: 0.19%
- Total content of impurities [16]: 0.19%
- Appearance [17]: White
- Content of Kudinoside A [17]: 99.8 % of the labeled amount
- Content of impurity F (Kudinoside D) [17]: 0.19%
- Total content of impurities [17]: 0.19%
- Appearance [18]: White
- Content of Kudinoside A [18]: 100.2 % of the labeled amount
- Content of impurity F (Kudinoside D) [18]: 0.21%
- Total content of impurities [18]: 0.35%
- Appearance [19]: White
- Content of Kudinoside A [19]: 100.2 % of the labeled amount
- Content of impurity F (Kudinoside D) [19]: 0.09%
- Total content of impurities [19]: 0.09%
- Appearance [20]: White
- Content of Kudinoside A [20]: 101.8 % of the labeled amount
- Content of impurity F (Kudinoside D) [20]: 0.08%
- Total content of impurities [20]: 0.08%
- Appearance [21]: White
- Content of Kudinoside A [21]: 99.9 % of the labeled amount
- Content of impurity F (Kudinoside D) [21]: 0.10%
- Total content of impurities [21]: 0.10%
- Appearance [22]: White
- Content of Kudinoside A [22]: 99.8 % of the labeled amount
- Content of impurity F (Kudinoside D) [22]: 0.08%
- Total content of impurities [22]: 0.08%
- Appearance [23]: White
- Content of Kudinoside A [23]: 98.6 % of the labeled amount
- Content of impurity F (Kudinoside D) [23]: 0.09%
- Total content of impurities [23]: 0.09%
- Appearance [24]: White
- Content of Kudinoside A [24]: 99.2 % of the labeled amount
- Content of impurity F (Kudinoside D) [24]: 0.09%
- Total content of impurities [24]: 0.09%
- Appearance [25]: White
- Content of Kudinoside A [25]: 99.8 % of the labeled amount
- Content of impurity F (Kudinoside D) [25]: 0.09%
- Total content of impurities [25]: 0.09%
- Appearance [26]: White
- Content of Kudinoside A [26]: 101.3 % of the labeled amount
- Content of impurity F (Kudinoside D) [26]: 0.08%
- Total content of impurities [26]: 0.08%
- crystal form conversion [1]: tends to convert to the crystal form J
- decomposition temperature [2]: about 318 °C
- weight change when the relative humidity is in the range of 0%-80% ([4]; DVS graph (FIGS. 1d, 2d, 3d)): about 12%
- hygroscopicity ([4]; DVS graph (FIGS. 1d, 2d, 3d), judgment criteria of Table 7): hygroscopic
- Increase in mass (relative humidity: 0%-80%) [4, 27]: 12%
- Degree of hygroscopicity [4, 27]: hygroscopic
SMILES: C[C@@H]1O[C@@H](O[C@H]2[C@H](O[C@H]3CC[C@]4(C)[C@H]5C[C@H](O)C6=C7[C@]8(CC[C@](C)(OC8=O)[C@@]7(C)O)CC[C@@]6(C)[C@]5(C)CC[C@H]4C3(C)C)OC[C@H](O)[C@@H]2O[C@@H]2O[C@H](CO)[C@@H](O)[C@H](O)[C@H]2O)[C@H](O)[C@H](O)[C@H]1O [crystal form A, Kudinoside A]
- conditions under which the crystal form exists stably [3]: can exist stably as a dry powder at room temperature
- Degree of hygroscopicity ([4]; DVS, 25° C., relative humidity 0%-80%, listed as A): Hygroscopic (The increase in mass is less than 15% but not less than 2%)
